{"source": "paper PMC5725665", "about": "“Discovery of a Highly Selective Cell‐Active Inhibitor of the Histone Lysine Demethylases KDM2/7” (Angewandte Chemie (International Ed. in English), 2017)", "assay_in_all_cases": "biochemical", "key": {"JMJD2A (KDM4A) [1]": {"target": "T1, JMJD2A (KDM4A) (Homo sapiens, UniProt O75164)", "T1 sequence (O75164 1-1064)": "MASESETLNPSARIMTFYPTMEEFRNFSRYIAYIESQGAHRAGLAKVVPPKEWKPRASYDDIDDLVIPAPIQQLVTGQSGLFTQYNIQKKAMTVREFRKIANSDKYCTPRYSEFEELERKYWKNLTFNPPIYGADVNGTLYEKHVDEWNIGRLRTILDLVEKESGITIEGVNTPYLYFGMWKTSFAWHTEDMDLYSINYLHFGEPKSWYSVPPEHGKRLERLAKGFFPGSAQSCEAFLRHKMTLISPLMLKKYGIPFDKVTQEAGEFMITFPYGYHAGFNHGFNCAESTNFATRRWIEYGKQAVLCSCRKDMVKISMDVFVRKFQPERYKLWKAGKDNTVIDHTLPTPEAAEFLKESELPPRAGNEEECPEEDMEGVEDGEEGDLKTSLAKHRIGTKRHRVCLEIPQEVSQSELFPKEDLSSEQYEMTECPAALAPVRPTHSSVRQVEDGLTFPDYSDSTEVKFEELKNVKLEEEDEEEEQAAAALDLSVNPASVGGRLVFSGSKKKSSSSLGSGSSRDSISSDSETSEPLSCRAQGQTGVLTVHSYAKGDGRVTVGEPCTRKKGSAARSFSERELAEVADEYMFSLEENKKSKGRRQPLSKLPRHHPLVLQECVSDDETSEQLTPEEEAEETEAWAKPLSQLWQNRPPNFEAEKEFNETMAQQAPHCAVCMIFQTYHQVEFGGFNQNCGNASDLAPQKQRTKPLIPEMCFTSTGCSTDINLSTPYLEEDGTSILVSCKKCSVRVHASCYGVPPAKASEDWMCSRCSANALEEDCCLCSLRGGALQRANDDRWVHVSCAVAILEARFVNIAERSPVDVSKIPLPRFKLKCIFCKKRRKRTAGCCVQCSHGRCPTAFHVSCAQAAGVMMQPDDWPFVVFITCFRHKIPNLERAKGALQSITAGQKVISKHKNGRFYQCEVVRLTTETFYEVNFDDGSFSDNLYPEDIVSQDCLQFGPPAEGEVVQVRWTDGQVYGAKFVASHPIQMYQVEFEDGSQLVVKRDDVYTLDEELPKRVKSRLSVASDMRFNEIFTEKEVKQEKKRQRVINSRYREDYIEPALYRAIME", "set-up": "AlphaScreen histone demethylase activity assay", "conditions": "read-out: KDM4A % Inhib. (18.75 uM)"}, "JARID1A (KDM5A)": {"target": "JARID1A (KDM5A) (Homo sapiens, UniProt P29375)", "sequence (P29375 whole entry)": "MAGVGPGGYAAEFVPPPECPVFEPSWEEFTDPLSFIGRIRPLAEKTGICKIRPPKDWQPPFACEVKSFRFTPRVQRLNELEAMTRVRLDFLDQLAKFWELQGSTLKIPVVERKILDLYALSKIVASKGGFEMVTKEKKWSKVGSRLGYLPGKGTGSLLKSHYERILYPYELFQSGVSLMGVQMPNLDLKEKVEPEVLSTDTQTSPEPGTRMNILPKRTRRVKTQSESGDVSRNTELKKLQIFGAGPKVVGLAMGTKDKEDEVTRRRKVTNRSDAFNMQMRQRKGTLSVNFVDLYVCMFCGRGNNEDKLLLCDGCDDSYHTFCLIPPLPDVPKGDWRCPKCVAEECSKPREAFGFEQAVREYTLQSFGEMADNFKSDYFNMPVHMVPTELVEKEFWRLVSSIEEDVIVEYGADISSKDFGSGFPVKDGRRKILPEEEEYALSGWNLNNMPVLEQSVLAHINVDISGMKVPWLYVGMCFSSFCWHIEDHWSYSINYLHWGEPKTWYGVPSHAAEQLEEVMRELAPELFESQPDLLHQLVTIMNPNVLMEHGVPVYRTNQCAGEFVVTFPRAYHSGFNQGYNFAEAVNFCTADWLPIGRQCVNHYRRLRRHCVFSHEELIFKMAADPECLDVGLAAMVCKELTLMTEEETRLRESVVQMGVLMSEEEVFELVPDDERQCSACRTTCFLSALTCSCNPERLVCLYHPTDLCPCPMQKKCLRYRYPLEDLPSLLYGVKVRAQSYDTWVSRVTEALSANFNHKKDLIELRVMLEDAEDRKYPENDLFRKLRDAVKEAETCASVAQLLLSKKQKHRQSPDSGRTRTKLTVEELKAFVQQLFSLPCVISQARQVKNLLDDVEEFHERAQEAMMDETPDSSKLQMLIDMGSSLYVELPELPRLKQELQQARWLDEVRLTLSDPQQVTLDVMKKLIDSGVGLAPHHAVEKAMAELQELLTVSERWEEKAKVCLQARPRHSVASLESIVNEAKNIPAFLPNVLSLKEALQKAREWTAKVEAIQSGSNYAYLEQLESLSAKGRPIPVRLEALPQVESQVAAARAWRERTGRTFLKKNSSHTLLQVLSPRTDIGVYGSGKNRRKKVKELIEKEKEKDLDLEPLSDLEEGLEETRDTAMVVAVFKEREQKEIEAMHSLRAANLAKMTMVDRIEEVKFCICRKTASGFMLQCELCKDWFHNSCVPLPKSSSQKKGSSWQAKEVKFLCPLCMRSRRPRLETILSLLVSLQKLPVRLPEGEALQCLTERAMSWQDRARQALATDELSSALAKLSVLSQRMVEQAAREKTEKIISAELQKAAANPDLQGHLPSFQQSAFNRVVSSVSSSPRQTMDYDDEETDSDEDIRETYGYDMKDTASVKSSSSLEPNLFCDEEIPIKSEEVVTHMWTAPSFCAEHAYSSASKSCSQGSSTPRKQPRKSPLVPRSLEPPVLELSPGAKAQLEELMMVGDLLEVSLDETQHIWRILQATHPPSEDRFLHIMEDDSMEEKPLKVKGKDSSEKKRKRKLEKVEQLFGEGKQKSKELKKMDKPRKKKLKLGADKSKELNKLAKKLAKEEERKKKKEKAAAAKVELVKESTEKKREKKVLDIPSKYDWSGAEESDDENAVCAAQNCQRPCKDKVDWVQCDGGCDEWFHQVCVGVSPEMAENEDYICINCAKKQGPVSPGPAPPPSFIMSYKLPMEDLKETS", "set-up": "AlphaScreen histone demethylase activity assay", "excerpt": "(§1) A base‐mediated 5‐endo‐trig cyclization of a C‐2‐substituted aromatic imine afforded the racemic indoline core with two adjacent stereocenters. Subsequent acylation of the indoline ring system conferred stability towards oxidation and provided a handle for modulating polarity. Finally, metal‐catalysed cross‐coupling of the aryl bromide provided access to a variety of linkers between the indoline core and pyrrolidine capping group. In total, 45 racemic compounds were synthesized, and IC50 values for inhibition of KDM2A were determined using two orthogonal enzyme activity assays: AlphaScreen25 and RapidFire MS26 (see Section S3.1 in the Supporting Information for complete inhibition data). Key structure–activity relationships are summarized below (Scheme 1 B, compounds 2–12). […] In immunofluorescence assays using HeLa cells ectopically expressing catalytically active KDM2A, a dose‐dependent increase in H3K36me2 staining was observed upon incubation with (S,S)‐6, reflecting augmented cellular H3K36me2 levels (Figure 2 A and Section S3.3). […] To profile its selectivity, (S,S)‐6 was tested for inhibitory activity against a panel of KDMs, methyllysine binding motifs, and epigenetic enzymes."}, "JMJD2A (KDM4A) [2]": {"target": "T1, JMJD2A (KDM4A)", "set-up": "AlphaScreen histone demethylase activity assay", "conditions": "for IC50: read-out: KDM4A pIC50 (converted); for KDM4A pIC50: inhibitor", "excerpt": "as §1"}, "KDM2A": {"target": "T2, KDM2A (Homo sapiens, UniProt Q9Y2K7)", "T2 construct": "isolated enzyme", "T2 sequence (Q9Y2K7 1-517 limits assumed)": "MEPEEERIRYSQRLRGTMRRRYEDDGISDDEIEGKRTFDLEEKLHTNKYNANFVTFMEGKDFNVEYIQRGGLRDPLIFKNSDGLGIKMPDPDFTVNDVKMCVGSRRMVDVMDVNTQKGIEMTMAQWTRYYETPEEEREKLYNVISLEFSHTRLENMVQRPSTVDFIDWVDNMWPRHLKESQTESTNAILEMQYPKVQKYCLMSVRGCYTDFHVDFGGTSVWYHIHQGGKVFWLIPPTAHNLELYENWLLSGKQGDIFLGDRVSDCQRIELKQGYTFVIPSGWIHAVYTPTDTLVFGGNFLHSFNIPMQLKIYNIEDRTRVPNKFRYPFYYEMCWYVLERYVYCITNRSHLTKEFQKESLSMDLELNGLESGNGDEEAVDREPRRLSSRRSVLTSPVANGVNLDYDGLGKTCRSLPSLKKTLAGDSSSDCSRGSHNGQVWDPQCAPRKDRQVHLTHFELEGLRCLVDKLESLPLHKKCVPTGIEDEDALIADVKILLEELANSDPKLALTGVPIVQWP", "set-up": "RapidFire MS histone peptide demethylation assay", "conditions": "for KDM2A RapidFire pIC50: inhibitor", "experimental": "[formula] Scheme 1 A) General synthetic strategy for racemic synthesis of KDM2A inhibitors. Reagents and conditions: i) Zn powder (10 equiv), NH4Cl (15 equiv), 5:1 acetone/H2O or H2, Pd/C (10 % w/w), EtOAc; ii) ArCHO (1.3 equiv), MgSO4 (5 equiv), PhMe or ArCHO (1.3 equiv), pyrrolidine (0.1 equiv), 3 Å sieves, CH2Cl2; iii) KO^tBu (1.1 equiv), PhMe, 0 °C; iv) R^3COCl (2–5 equiv), pyridine (2–5 equiv), CH2Cl2; v) metal‐catalysed cross‐coupling. B) Key structure–activity relationships. IC50 values were determined by RapidFire MS and confirmed by AlphaScreen. All compounds are racemic. C) Catalytic enantioselective synthesis. Reagents and conditions: i) CsOH⋅H2O (2.0 equiv), catalyst 14/16 (10 mol %), PhMe, −30 °C. Catalyst 14: 89 %, d.r. 10:1, e.r. 88:12; catalyst 16: 84 %, d.r. 7:1, e.r. 17:83; ii) CH3COCl (2.0 equiv), pyridine (2.0 equiv), CH2Cl2; iii) H2, Pd/C (10 % w/w), 88 % (2 steps); iv) K2CO3 (5 equiv), Br(CH2)7Br (4 equiv), acetone, reflux, 38 %; v) K2CO3 (5 equiv) pyrrolidine (4 equiv), CH3CN, 65 %; vi) PhN(SO2CF3)2 (1.1 equiv), DIPEA (2.0 equiv), CH2Cl2, 0 °C, 85 %; vii) 7‐pyrrolidine‐hept‐1‐yne (1.5 equiv), PdCl2(PPh3)2 (5 mol %), CuI (5 mol %), HN(^iPr)2, 75 °C, 79 %; viii) H2, Pd/C (10 % w/w), MeOH, 74 %. DIPEA=(^iPr)2NEt. A base‐mediated 5‐endo‐trig cyclization of a C‐2‐substituted aromatic imine afforded the racemic indoline core with two adjacent stereocenters. Subsequent acylation of the indoline ring system conferred stability towards oxidation and provided a handle for modulating polarity. Finally, metal‐catalysed cross‐coupling of the aryl bromide provided access to a variety of linkers between the indoline core and pyrrolidine capping group. In total, 45 racemic compounds were synthesized, and IC50 values for inhibition of KDM2A were determined using two orthogonal enzyme activity assays: AlphaScreen25 and RapidFire MS26 (see Section S3.1 in the Supporting Information for complete inhibition data). Key structure–activity relationships are summarized below (Scheme 1 B, compounds 2–12)."}}, "data": [{"smiles": "CC(=O)N1c2ccccc2[C@](C#N)(c2ccccc2)[C@H]1c1ccc(CCCCCCCN2CCCC2)o1", "note": "(racemic) [compound 7, 7]", "values": [{"measurement": "inhibition at 18.75 µM", "setting": "JMJD2A (KDM4A) [1]", "value": 8.5, "unit": "%"}, {"measurement": "inhibition at 50 µM", "setting": "JARID1A (KDM5A)", "value": 47.5, "unit": "%"}]}, {"smiles": "CC(=O)N1c2ccccc2[C@](C#N)(c2ccccc2)[C@H]1c1cncc(OCCOCCOCCN2CCCC2)c1", "note": "(racemic) [compound 148, (2RS,3RS)-1-Acetyl-3-phenyl-2-(5-(2-(2-(2-(pyrrolidin-1-yl)ethoxy)ethoxy)ethoxy)pyridin-3-yl)indoline-3-carbonitrile]", "values": [{"measurement": "inhibition at 18.75 µM", "setting": "JMJD2A (KDM4A) [1]", "value": -5.9, "unit": "%"}, {"measurement": "IC50", "setting": "JMJD2A (KDM4A) [2]", "value": "> 20", "unit": "µM"}]}, {"smiles": "CC(=O)N1c2ccccc2[C@](C#N)(c2ccccc2)[C@H]1c1cncc(C#CCCCCCN2CCCC2)c1", "note": "(racemic) [compound 4, 4]", "values": [{"measurement": "inhibition at 18.75 µM", "setting": "JMJD2A (KDM4A) [1]", "value": 10.2, "unit": "%"}, {"measurement": "inhibition at 50 µM", "setting": "JARID1A (KDM5A)", "value": 39, "unit": "%"}]}, {"smiles": "CC(=O)N1c2ccccc2C(C#N)(c2ccccc2)C1c1cc(CCCCCCCN2CCCC2)co1", "note": "(stereo not shown) [compound 8, 8]", "values": [{"measurement": "inhibition at 18.75 µM", "setting": "JMJD2A (KDM4A) [1]", "value": 21.8, "unit": "%"}, {"measurement": "inhibition at 50 µM", "setting": "JARID1A (KDM5A)", "value": 23, "unit": "%"}]}, {"smiles": "CC(=O)N1c2ccccc2[C@](C#N)(c2ccccc2)[C@H]1c1cncc(CCCCCCCN2CCCC2)c1", "note": "[(R,R)-6]", "values": [{"measurement": "inhibition at 18.75 µM", "setting": "JMJD2A (KDM4A) [1]", "value": 7.8, "unit": "%"}, {"measurement": "inhibition at 50 µM", "setting": "JARID1A (KDM5A)", "value": 40, "unit": "%"}]}, {"smiles": "CC(=O)N1c2ccccc2[C@](C#N)(c2ccccc2)[C@H]1c1ccc(C#CCCCCCN2CCCC2)o1", "note": "(relative stereo) [compound 132, 132]", "values": [{"measurement": "inhibition at 18.75 µM", "setting": "JMJD2A (KDM4A) [1]", "value": 18.3, "unit": "%"}, {"measurement": "inhibition at 50 µM", "setting": "JARID1A (KDM5A)", "value": 49.1, "unit": "%"}, {"measurement": "KDM5A pIC50", "setting": "JARID1A (KDM5A); inhibitor", "value": "< 4.3"}, {"measurement": "KDM4A pIC50", "setting": "JMJD2A (KDM4A) [2]", "value": "< 4.7"}, {"measurement": "KDM2A RapidFire pIC50", "setting": "KDM2A", "value": 5.990}]}, {"smiles": "CC(=O)N1c2ccccc2[C@](C#N)(c2ccccc2)[C@H]1c1cncc(OCCCCCCCN2CCCC2)c1", "note": "(racemic) [compound 3, 3]", "values": [{"measurement": "inhibition at 18.75 µM", "setting": "JMJD2A (KDM4A) [1]", "value": -5.4, "unit": "%"}, {"measurement": "inhibition at 50 µM", "setting": "JARID1A (KDM5A)", "value": 24, "unit": "%"}]}, {"smiles": "CC(=O)N1c2ccccc2[C@@](C#N)(c2ccccc2)[C@H]1c1cccc(/C=C/CCCCCN2CCCC2)c1", "note": "(relative stereo) [compound 126, 126]", "values": [{"measurement": "inhibition at 18.75 µM", "setting": "JMJD2A (KDM4A) [1]", "value": 27.8, "unit": "%"}, {"measurement": "KDM4A pIC50", "setting": "JMJD2A (KDM4A) [2]", "value": "< 4.7"}, {"measurement": "KDM2A RapidFire pIC50", "setting": "KDM2A", "value": 5.983}]}, {"smiles": "CC(=O)N1c2ccccc2C(C#N)(c2ccccc2)C1c1cncc(C#CCCCCCN2CCCC2)c1", "note": "(stereo not shown) [compound 130, 130]", "values": [{"measurement": "inhibition at 18.75 µM", "setting": "JMJD2A (KDM4A) [1]", "value": -1.3, "unit": "%"}, {"measurement": "inhibition at 50 µM", "setting": "JARID1A (KDM5A)", "value": 30.9, "unit": "%"}]}, {"smiles": "CCOC(=O)C1(C#N)c2ccccc2N(C(C)=O)C1c1cncc(C=CCCCCCN2CCCC2)c1", "note": "(stereo not shown) [compound 124, 124]", "values": [{"measurement": "inhibition at 18.75 µM", "setting": "JMJD2A (KDM4A) [1]", "value": -12.7, "unit": "%"}, {"measurement": "inhibition at 50 µM", "setting": "JARID1A (KDM5A)", "value": 20, "unit": "%"}]}, {"smiles": "CC(=O)N1c2ccccc2[C@@](C#N)(c2ccccc2)[C@H]1c1cncc(OCCCCCCCN2CCCC2)c1", "note": "(racemic) [compound 145, (2RS,3SR)-1-Acetyl-3-phenyl-2-(5-((7-(pyrrolidin-1-yl)heptyl)oxy)pyridin-3-yl)indoline-3-carbonitrile]", "values": [{"measurement": "inhibition at 18.75 µM", "setting": "JMJD2A (KDM4A) [1]", "value": -9.59, "unit": "%"}, {"measurement": "inhibition at 50 µM", "setting": "JARID1A (KDM5A)", "value": 36.7, "unit": "%"}, {"measurement": "IC50", "setting": "JARID1A (KDM5A); read-out: KDM5A pIC50 (converted)", "value": "> 50.1", "unit": "µM"}, {"measurement": "IC50", "setting": "JMJD2A (KDM4A) [2]", "value": "> 20", "unit": "µM"}, {"measurement": "IC50", "setting": "KDM2A; read-out: KDM2A RapidFire pIC50 (converted)", "value": 1.01, "unit": "µM"}]}, {"smiles": "CC(=O)N1c2ccccc2[C@](C#N)(c2ccccc2)[C@H]1c1cncc(CCCCCCCN2CCCC2)c1", "note": "(racemic) [compound 6, 6]", "values": [{"measurement": "inhibition at 18.75 µM", "setting": "JMJD2A (KDM4A) [1]", "value": -1.1, "unit": "%"}, {"measurement": "inhibition at 50 µM", "setting": "JARID1A (KDM5A)", "value": 25.5, "unit": "%"}]}]}
